From patent publication US10478446B2, “Compounds for use in polycystic kidney disease” (FONDAZIONE CENTRO SAN RAFFAELE OFFICE OF BIOTECHNOLOGY …, priority 2012, dated 2019)
Entries after “also recorded” stand apart in the source; their conditions may differ.

Assays:
Pkd1^−/− MEFs [1] = assay: Western blot of signalling phosphoproteins (pAMPK, pERK, pS6RP, pLKB1); assay type: cell-based, mouse
Description: (§5) Antibodies anti-p-Akt 5473, anti-p-AMPK-Thr172; anti-AMPK, anti-p-S6RP Ser 235/236; anti-S6Rp; anti-p-ERK T202/Y204 and anti-ERK antibodies were from Cell Signaling Technology and used at 1:1000; anti-LC3 NB100 was from Novus Biologicals; anti-actin and anti-tubulin antibodies were from Sigma Aldrich and used at 1:5000. Anti-ki67 was from Novocastra and was used at 1:400. UO126 and rapamycin (Cell Signaling Technologies) were employed at final concentrations of 30 μM and 20 or 50 nM, respectively. AICAR and Metfomin (Sigma Aldrich) were used at the final concentration of 2 mM, oligomycin (Sigma Aldrich) was used at the final concentration of 30 μg/ml.
For western blot analysis, the cells were lysed [lysis buffer: 250 mM sucrose, 20 mM imidazole and 1 mM EDTA, pH 7.4, 0.5% Triton-X 100, supplemented with Protease Inhibitors Cocktail (Amersham) and phosphatase inhibitors (1 mM final of glycerophosphate, sodium orthovanadate and sodium fluoride)]. Total lysates were quantified and Laemmli buffer was added to reach a 1× final concentration. Proteins were resolved in a SDS-PAGE gel and transferred onto PVDF membranes. Next, 5% milk in TBS-T was used for blocking and for secondary antibody incubations, while 2% BSA in TBS-T was used for incubations with primary antibodies. HRP-conjugated secondary antibodies (from Roche) were visualized using the ECL System (Amersham), which were mixed with Super-Femto ECL System from Pierce when necessary.

Pkd1^+/+ MEFs [2] = settings: UO126
Description: as §5
For western blot analysis, the cells were lysed [lysis buffer: 250 mM sucrose, 20 mM imidazole and 1 mM EDTA, pH 7.4, 0.5% Triton-X 100, supplemented with Protease Inhibitors Cocktail (Amersham) and phosphatase inhibitors (1 mM final of glycerophosphate, sodium orthovanadate and sodium fluoride)]. Total lysates were quantified and Laemmli buffer was added to reach a 1× final concentration. Proteins were resolved in a SDS-PAGE gel and transferred onto PVDF membranes. Next, 5% milk in TBS-T was used for blocking and for secondary antibody incubations, while 2% BSA in TBS-T was used for incubations with primary antibodies. […]

Pkd1^+/+ MEFs [3] = assay: ATP content of MEFs after oligomycin; assay type: cell-based, mouse; settings: oligomycin for 5 h, before treatment 102891+/−1042 RLU
Description: For ATP content evaluation, whole-cell extracts of control and treated MEFs cells were prepared by suspending pellets in lysis buffer as described in Distefano et al, 2009. […] Medium of control and treated MEFs was taken after 24 h at 100% of confluence. The concentration of lactate using EnzyChrom™ L-lactate Assay Kit (BioAssay Systems) and quantified on the final number of cells.

Pkd1^+/+ MEFs [4] = assay: Autophagosomes per cell by electron microscopy; assay type: cell-based, mouse; settings: rapamycin 50 nM
Description: (§1) Cell culture monolayers were fixed for 15 min at 4° C. with PAF 4% and 2.5% glutaraldehyde in 125 mM cacodylate buffer. The monolayers were detached by rubber and centrifuged at high speed. The pellet was post-fixed (1 hour) with 2% OsO4 in 125 mM cacodylate buffer, was washed, dehydrated and embedded in Epon. Conventional thin sections were collect on uncoated grids, stained with uranil and lead citrate and examined in a Leo912 electron microscope.

Pkd1^−/− MEFs [5] = assay: Autophagosomes per cell by electron microscopy / autophagy; assay type: cell-based, mouse; settings: rapamycin 50 nM
Description: as §1

PKD mouse model = settings: Takiar et al. 2011; cited from earlier work
Pkd1^flox/−:Ksp-Cre mice = assay: 2DG treatment of mice with cystic kidneys; assay type: in vivo, mouse
Description: For proliferation assays immunostaining was carried our using an anti-Ki67 antibody followed by analysis. For cells, fluorescence was measured on triplicates of 300 cells using the microscope Axioplot (Zeiss). For kidney sections, pictures at 20× were taken using the camera Axio MRc5 (Zeiss) with the microscope Axioplan 2 (Zeiss), positive cells were counted on 6 sections for each group for each experiment using the ImageJ software.
(§2) Generation of Pkd1^flox/−:Ksp-Cre mice was previously described. Briefly, we crossed Pkd1^flox/flox29 and Pkd1^+/−: Ksp-Cre mice in pure C57/B16 genetic background. For treatments 2DG (Sigma-Aldrich) or vehicle (NaCl) were injected subcutaneously daily from P6 until P8 at 500 mg/kg.
(§3) 2DG (Sigma-Aldrich) or vehicle (NaCl) were injected subcutaneously daily from P6 until P8 at 500 mg/kg.
(§4) After sacrifice, kidneys were removed, washed in phosphate-buffered saline (PBS), weighed and fixed in 4% Para formaldehyde (PFA). After incubation in a sucrose in PBS gradient scale from 10% to 30% samples were incubated in 10% glycerol (Sigma) in a mixture of OCT (BIO-OPTICA) and sucrose 30%, finally embedded in OCT. Criostat sections were air-dried 1 h, rehydrated in PBS, incubated in Harris Hematoxylin 1:10 (Sigma Aldrich) for 2 min, washed, incubated in Eosin G (BIO-OPTICA) for 7 min, washed dehydrated and mounted in DEPEX (Sigma).
For Immunohistochemistry 10 μm cryosections were washed in Tween-0.1% in PBS (like all washes), fixed in PAF4%, permeabilized in Triton 0.1% in PBS, incubated in hydrogen peroxide 0.3% for 30 min, blocked for 1 h at room temperature with 5% Normal Goat Serum (Sigma Aldrich) 3% bovine serum albumin (BSA, Sigma) in phosphate-buffered saline, incubated O/N at 4° C. with the Antibody (ab) in blocking buffer diluted at 1:500. Sections were then incubated with the Dako EnVision+System-HRP (Dako). Staining is completed by an incubation with 3,3′ diaminobenzidine tetrahydrochloride (DAB) DAB+Substrate Chromogen System (DakoCytomation) and counterstained with Harris Hematoxylin (Sigma Aldrich). diluted 1/10 for 3 min.
A grid of squares 13.625 μm large was applied to sections of kidneys stained with Hematoxylin-Eosin. Each cross is marked with a dot, number of dots inside the lumen are counted on three litters (218 000 μm^2 for each). The degree of dilatation is determined according to Lu et al., 1999 ^32:1 dot: normal tubules; 2 dots: dilatated tubules; 3-9 dots: Small cysts; ≥10 dots: Cysts.

[6] = tested on: wt mice (ksp-cre: Pkd1^+/flox); assay: 2DG treatment of wt mice; assay type: in vivo, mouse; settings: 2DG 500 mg/kg daily P6 to P8
Description: as §2, §3, §4

[7] = 2DG 500 mg/kg daily P6 to P8, genotype not stated
[8] = 2DG 500 mg/kg daily P6 to P8, treated vs untreated mutant kidneys
[9] = cystic kidneys treated with 2DG

Compound: N#CC(=C(/N)Sc1ccccc1N)/C(C#N)=C(/N)Sc1ccccc1N [UO126]
- pAMPK (Pkd1^−/− MEFs [1]; 30 μM UO126 for 12 h): enhances
- pERK (Pkd1^−/− MEFs [1]; 30 μM UO126 for 12 h): restores normal
- pS6RP (Pkd1^−/− MEFs [1]; 30 μM UO126 for 12 h): restores normal
- pLKB1 levels (LKB1 phosphorylation at 5428) (Pkd1^−/− MEFs [1]; UO126, Pkd1^−/− MEFs): reduced
- pLKB1 levels (LKB1 phosphorylation at 5428) (Pkd1^+/+ MEFs [2]): reduced

Compound: NC(=O)c1ncn([C@@H]2O[C@H](CO)[C@@H](O)[C@H]2O)c1N [AICAR, 5-aminoimidazole-4-carboxamide ribonucleoside]
- pAMPK levels (Pkd1^−/− MEFs [1]; AICAR (1 mM)): restored; also recorded: increased
- pERK (Pkd1^−/− MEFs [1]; AICAR (1 mM)): restored to baseline levels; also recorded: inhibited

Compound: CC[C@H]1/C=C/C=C/C[C@@H](C)[C@H](O)[C@@](C)(O)C(=O)[C@@H](C)[C@H](O)[C@@H](C)C(=O)[C@@H](C)[C@H](O)[C@@H](C)/C=C/C(=O)O[C@@H]2[C@H](C)[C@H](CC1)O[C@]1(CC[C@H](C)[C@H](C[C@@H](C)O)O1)[C@H]2C [oligomycin]
- ATP content (Pkd1^+/+ MEFs [3]): decreased

Compound: CO[C@H]1C[C@@H]2CC[C@@H](C)[C@@](O)(O2)C(=O)C(=O)N2CCCC[C@H]2C(=O)O[C@H]([C@H](C)C[C@@H]2CC[C@@H](O)[C@H](OC)C2)CC(=O)[C@H](C)/C=C(\C)[C@@H](O)[C@@H](OC)C(=O)[C@H](C)C[C@H](C)/C=C/C=C/C=C/1C [rapamycin]
- number of autophagosomes per cells evaluated by EM (Pkd1^+/+ MEFs [4]): 2.87+/−0.55 a.u.
- number of autophagosomes per cells evaluated by EM (Pkd1^−/− MEFs [5]): 0.96+/−0.18 a.u.

Compound: CN(C)C(=N)N=C(N)N [metformin]
- pAMPK levels (Pkd1^−/− MEFs [1]; metformin (2 mM)): restored; also recorded: increased
- pERK (Pkd1^−/− MEFs [1]; metformin (2 mM)): restored to baseline levels; also recorded: inhibited
- cyst expansion (PKD mouse model): effectively reduce

Compound: O=CC[C@@H](O)[C@H](O)[C@H](O)CO [2DG, 2-deoxyglucose]
- proliferation index in the cystic kidneys (Ki67 assay) (Pkd1^flox/−:Ksp-Cre mice; 2DG 500 mg/kg daily P6 to P8, vs vehicle (NaCl)): decreased; also recorded: reduced
- proliferation rates in the cyst lining epithelium (Ki67) (Pkd1^flox/−:Ksp-Cre mice; 2DG 500 mg/kg daily P6 to P8, NaCl 28.48+/−5.39%): 10.53+/−4.38%
- brain weight normalized by body weight (Pkd1^flox/−:Ksp-Cre mice; [7]): did not showed effect; also recorded: do not change
- liver weight normalized by body weight (Pkd1^flox/−:Ksp-Cre mice; [7]): did not showed effect; also recorded: do not change
- body weight (Pkd1^flox/−:Ksp-Cre mice; 2DG 500 mg/kg daily P6 to P8, mutant mice): did not alter; also recorded: do not change
- number of normal and dilated tubules (cystic index) (Pkd1^flox/−:Ksp-Cre mice; [8]): slightly reduced
- number of small cysts (cystic index) (Pkd1^flox/−:Ksp-Cre mice; [8]): significantly reduced
- ratio of kidney weight on body weight (Pkd1^flox/−:Ksp-Cre mice; 2DG 500 mg/kg daily subcutaneously P6 to P8, mutant mice, vs vehicle (NaCl)): effect of the treatment with the 2DG only on mutant animals; also recorded: significantly reduced
- number of cysts (cystic index) (Pkd1^flox/−:Ksp-Cre mice; [9]): significant decrease
- number of normal tubules (cystic index) (Pkd1^flox/−:Ksp-Cre mice; [9]): increased
- body weight [6]: did not alter
- kidney weight [6]: did not affect
